# Source: patent publication US20140366441A1, “VEGETATIVE PROPAGATION OF SOYBEAN PLANTS IN A HYDROPONIC ENVIRONMENT” (Bayer Cropscience LP, priority 2012, published 2014)
# Columns and labels:
# Soybean shoot cuttings = assay: Root development of soybean shoot cuttings in tissue culture boxes with fertilizer solution and NAA; type: in vivo; conditions: higher NAA concentrations (10^-8 M, 10^-7 M, 10^-6 M tested); nine days; FIG. 3
# Experimental: Three NAA concentrations at 10^-8 M, 10^-7 M and 10^-6 M with 5 cm, 10 cm and 15 cm long shoots were tested in replicate. Soybean shoot cuttings were taken from plants recovered from tissue culture. Tissue culture boxes (Vitro […]) were used to hold the solutions, and the lids with a 2.5 cm hole in the middle were used to hold the shoots with the help of a cylindrical sponge. NAA solution was obtained from PhytoTechnology Laboratories. Fertilizer was applied from the stock A, B, and C solutions described in Example 1. Three separate 5-liter fertilizer solutions were made by mixing 10 ml each of fertilizer stock solution A, B and C in 4970 ml of tap water. NAA stock solution was added to achieve a final concentration of 10^-8 M, 10^-7 M and 10^-6 M solution, respectively. Soybean shoot cuttings were inserted into the sponge roll, and placed through the lid of the tissue culture box. The shoots in the solutions were placed in a greenhouse with 20 hour light cycles at 27° C. and 4 hour night cycles at 21° C. Data was collected nine days after the shoots were placed in the boxes.
# Soybean shoots = assay: Root development of soybean shoot cuttings in 50 ml tubes with water or fertilizer solution ± NAA; type: in vivo; conditions: NAA at 10^-8 M and 10^-7 M; day 12; FIG. 1B
# Experimental: Soybean shoots 10 to 15 cm long were cut from 2 similar plants and placed in 50 ml plastic tubes. One shoot was placed in each tube. The tubes contain 50 ml solutions according to the following design: The base solution was either water or a 1:200 dilution of fertilizer stock solution A, B and C. Stock A contains 958.6 grams of 21-5-20 All Purpose from Jack's Professional, 133.8 grams of 15-0-15 Dark Weather (Jack's Professional) and 60.0 grams of 10-0-0 Magnitrate Special (Peter's Excel) in 2 liter of water. Stock B contains 239.6 grams of 15-5-25 Poinsettia Peat-Lite Special (Jack's Professional) in 2 liters of water. Stock C contains 60.0 grams of Epsom salt (magnesium sulfate) in 1.0 liter of water. NAA (1-Naphthaleneacetic acid, Sigma-Aldrich) was added to either water or fertilizer solutions to concentrations of 0, 10^-9 M, 10^-8 M and 10^-7 M. There were 2 fertilizer (with or without) treatments×4 NAA treatments, totaling 8 treatments. The experiment was repeated 3 times, making a total of 24 tubes. The shoots in the solutions were placed in a greenhouse with 20 hour light cycles at 28° C. and 4 hour night cycles at 22° C.
structure (smiles),measurement,setting,value
"O=C(O)Cc1cccc2ccccc12 [NAA, 1-Naphthaleneacetic acid]",effect of NAA on root length,Soybean shoot cuttings,kept the roots shorter
same,effect of NAA on root number,Soybean shoot cuttings,stimulated more roots from a shoot
same,effect of NAA on root growth (root length),Soybean shoots,positive effects on root growth
